# Experimental data: BindingDB's records for doi:10.1016/s0960-894x(98)00576-9 (Research Triangle Institute, 1999)
# Experiment: Compound was tested for the inhibition of [35S]GTP-gamma-S, binding in Guinea pig Caudate stimulated by the Opioid receptor delta 1 agonist Delta-SNC80
row,SMILES,Ki [nM]
1,"CN1CC[C@]2(c3cccc(O)c3)Cc3ccccc3C[C@]2(C)C1 [3-((4aS,10aS)-2,10a-Dimethyl-1,3,4,5,10,10a-hexahydro-2H-benzo[g]isoquinolin-4a-yl)-phenol]",222
2,"C[C@]12Cc3ccccc3C[C@@]1(c1cccc(O)c1)CCN(CCc1ccccc1)C2 [3-((4aS,10aS)-10a-Methyl-2-phenethyl-1,3,4,5,10,10a-hexahydro-2H-benzo[g]isoquinolin-4a-yl)-phenol]",184
